Laboratory results taken from PMC7588913, “A Peptide Found in Human Serum, Derived from the C-Terminus of Albumin, Shows Antifungal Activity In Vitro and In Vivo” (Microorganisms, 2020).
Read-outs that look alike come from different tables or passages of the source. Where a SMILES comes first, the peptide text is derived from it.

How the values were obtained:
C. albicans SC5314 = test: Colony forming unit (CFU) candidacidal assay; assay type: cell-based, Candida albicans; details: 100 μg/mL vs reference strain C. albicans SC5314, CFU assay
Protocol: The fungicidal activity of the selected peptides was evaluated in vitro by a previously described colony forming unit (CFU) assay. All peptides were preliminarily tested at the concentration of 100 μg/mL vs. the reference strain C. albicans SC5314. […] After incubation at 37 °C for 6 h in the presence or absence (control growth) of the peptides, fungal cell suspensions (approximately 500 cells/100 μL of distilled water) were spread on Sabouraud Dextrose agar plates. After incubation at 30 °C for 48–72 h, CFUs were enumerated. Each assay was carried out in triplicate and at least 2 independent experiments were performed for each condition. EC50 values were calculated by nonlinear regression analysis using Graph Pad Prism 4.01 software, San Diego, CA, USA. Time kinetics of K13L-mediated killing against the reference C. albicans strain was determined by CFU assays, as described above, after incubation of yeast cells for 30 min, 1, 2, 4 and 6 h with K13L at different concentrations.

LLC-MK2 cells = assay type: cell-based, Rhesus monkey
Protocol: (§1) The hemolytic and cytotoxic activity of the selected peptides (25, 50 and 100 μM) was evaluated as previously described. For the evaluation of hemolytic activity, peptides were added to human erythrocytes (blood group 0 Rh+, final concentration, 2.5% v/v) and hemoglobin release was estimated after 30 and 120 min incubation by measuring the absorbance of the supernatant at 540 nm. Erythrocytes suspended in phosphate buffered saline (PBS) and Triton 1% were the controls for zero (blank) and 100% hemolysis, respectively. Cytotoxicity against Rhesus monkey kidney epithelial cells (LLC-MK2 line) treated with peptides for 24 h was assessed after resazurin addition by measuring fluorescence intensity at 572 nm. Cells in medium without peptide served as control (100% viability). Each assay was carried out in duplicate and at least 2 independent replicates were performed for each experiment.
(§2) Data are reported as the mean ± SD. Statistical significance was assessed by t test, p < 0.05 was considered significant.

human erythrocytes = assay type: cell-based
Protocol: as §1, §2

Galleria mellonella = test: In vivo toxicity in Galleria mellonella larvae; details: K13L 33.33 mg/kg into the haemocoel, 37 °C, monitored 9 days, Mantel–Cox log-rank test
Protocol: The potential therapeutic activity of K13L was evaluated by the G. mellonella model of experimental candidiasis, according to a previously described procedure. To preliminarily evaluate in vivo toxicity, a solution of K13L (33.33 mg/kg) was inoculated directly into the haemocoel, via the last left pro-leg, in larvae at their final instar stage (body weight, 300 ± 20 mg, 10 μL/larva). Larvae inoculated with 10 μL of saline solution and untouched larvae served as controls. All animals were incubated at 37 °C in the dark and monitored daily for survival for 9 days. For the evaluation of therapeutic activity, larvae (16/group) were challenged with C. albicans SC5314 (5 × 10^5 yeast cells/larva, 10 μL) via the last left pro-leg. A solution of K13L (16.66 mg/kg,) or saline (control) was injected 60 min later, via the last right proleg (10 μL). Larvae were monitored daily for 9 days after infection. The log rank (Mantel–Cox) test was used to compare survival curves by Graph Pad Prism software.

Row | Structure (SMILES) | Fungicidal activity in preliminary assay (C. albicans SC5314) | Cell Viability (%) (LLC-MK2 cells; 25 µM) | Cell Viability (%) (LLC-MK2 cells; 50 µM) | Cell Viability (%) (LLC-MK2 cells; 100 µM) | Hemolysis (%) (human erythrocytes; 25 µM) | Hemolysis (%) (human erythrocytes; 50 µM) | Survival of larvae vs saline-inoculated larvae (in vivo toxicity) (Galleria mellonella)
1 | CC(C)C[C@H](NC(=O)[C@H](Cc1ccccc1)NC(=O)[C@H](CC(=O)O)NC(=O)CNC(=O)[C@H](CCC(=O)O)NC(=O)CNC(=O)[C@H](CO)NC(=O)[C@@H](N)CC(=O)O)C(=O)N[C@@H](C)C(=O)N[C@@H](CCC(=O)O)C(=O)NCC(=O)NCC(=O)NCC(=O)N[C@H](C(=O)N[C@@H](CCCNC(=N)N)C(=O)O)C(C)C [Peptide D15R] (H-DSGEGDFLAEGGGVR-OH; N-terminus and C-terminus assumed) | no activity | 101.32 ± 1.92 | 101.25 ± 0.19 | 103.00 ± 1.49 | – | – | –
2 | C[C@H](NC(=O)[C@H](CCC(=O)O)NC(=O)[C@H](CO)NC(=O)CNC(=O)[C@H](C)NC(=O)[C@H](CCC(=O)O)NC(=O)[C@@H](N)CC(=O)O)C(=O)N[C@@H](CC(=O)O)C(=O)N[C@@H](Cc1c[nH]cn1)C(=O)N[C@@H](CCC(=O)O)C(=O)NCC(=O)N[C@H](C(=O)N[C@@H](Cc1c[nH]cn1)C(=O)N[C@@H](CO)C(=O)N[C@H](C(=O)O)[C@@H](C)O)[C@@H](C)O [Peptide D15T] (H-DEAGSEADHEGTHST-OH; N-terminus and C-terminus assumed) | no activity | 108.50 ± 0.92 | 107.55 ± 1.48 | 108.50 ± 5.15 | 0.00 | 0.00 | –
3 | CC[C@H](C)[C@H](NC(=O)[C@H](CCCCN)NC(=O)[C@H](CO)NC(=O)CNC(=O)[C@H](CC(C)C)NC(=O)[C@H](CO)NC(=O)[C@H](Cc1ccccc1)NC(=O)[C@H](CCC(N)=O)NC(=O)[C@H](CC(C)C)NC(=O)[C@H](CCC(=O)O)NC(=O)[C@H](CCC(=O)O)NC(=O)[C@H](CCC(=O)O)NC(=O)[C@H](CC(C)C)NC(=O)CN)C(=O)N[C@@H](CC(N)=O)C(=O)N[C@H](C(=O)N[C@@H](CCCCN)C(=O)O)C(C)C [Peptide G17K] (H-GLEEELQFSLGSKINVK-OH) | – | 99.07 ± 1.57 | 99.73 ± 0.45 | 99.07 ± 1.57 | 0.00 | – | –
4 | CC(C)C[C@H](NC(=O)CNC(=O)[C@H](CC(C)C)NC(=O)[C@H](C)NC(=O)[C@H](C)NC(=O)[C@H](CCC(N)=O)NC(=O)[C@H](CO)NC(=O)[C@H](C)NC(=O)[C@H](C)NC(=O)[C@@H](NC(=O)[C@H](CC(C)C)NC(=O)[C@H](CCCCN)NC(=O)[C@@H](N)CCCCN)C(C)C)C(=O)O [Peptide K13L] (H-KKLVAASQAALGL-OH) | – | 105.95 ± 1.47 | 105.04 ± 0.20 | 101.26 ± 0.38 | – | – | No significant difference in survival
5 | CC(C)[C@H](NC(=O)[C@@H](NC(=O)[C@H](Cc1ccccc1)NC(=O)CNC(=O)[C@H](CCC(=O)O)NC(=O)[C@H](CC(N)=O)NC(=O)[C@H](CCC(=O)O)NC(=O)[C@H](CCCCN)NC(=O)[C@@H](NC(=O)[C@H](CCC(=O)O)NC(=O)[C@H](CCC(=O)O)NC(=O)[C@@H](N)CO)[C@@H](C)O)[C@@H](C)O)C(=O)N[C@H](C(=O)N[C@@H](C)C(=O)N[C@@H](CCC(=O)O)C(=O)NCC(=O)N[C@@H](CCCCN)C(=O)O)[C@@H](C)O [Peptide S17K] (H-SEETKENEGFTVTAEGK-OH; N-terminus and C-terminus assumed) | no activity | 103.47 ± 2.00 | 102.69 ± 1.37 | 101.73 ± 1.82 | 0.00 | – | –
